Test results reported in patent US11160808B2, “Compounds that enhance Atoh1 expression” (Massachusetts Eye & Ear Infirmary, priority 2008, dated 2021).
Where two headings read alike, the source gives them in different places.

What was measured:
[1] = test system: Math1 enhancer and minimal promoter Luciferase reporter in HEK cells; assay: Math1 Luciferase reporter assay in HEK cells; format: cell-based, human
From the text: A human embryonic kidney (HEK) cell line stably expressing a Luciferase gene controlled by an Math1 enhancer and minimal promoter was used in a high-throughput screen (HTS) of 144,000 small molecules to identify compounds that increase Math1 expression (i.e., transcription and/or translation). Such compounds can be used to increase the conversion of stem cells, progenitor cells, and support cells to or towards a hair cell. Screens to identify such compounds are described by Li et al., (U.S. Publication No. 2005/0287127) and Li et al., (U.S. application Ser. No. 11/953,797).
HEK cells stably expressing the Math1 Luciferase reporter were plated onto 384 well plates and cultured overnight in medium containing 10% fetal calf serum (FCS). Activation of the Math1 enhancer was measured by the increase in luminescence on a plate reader following addition of a luciferase detection agent. The assay was optimized for cell number, time of incubation, volume of medium, cell lysis reagent and luciferase reagent. Luminescence levels were compared in cells with the Math1-luciferase construct with and without retinoic acid (1 μM), and/or a luciferase construct with and without the Math1 enhancer and minimal promoter region.
To improve assay sensitivity, and reduce the coefficient of variation (CV), a more sensitive luciferase reagent (BriteLite luciferase reporter assay reagent, Perkin Elmer) was used, and Triton-X-100 was added to the lysis reagent to ensure complete lysis of the cells. Following these changes a CV of 4.2% was recorded. These conditions were used for all high-throughput screens. The luminescence threshold for a compound to be positive was defined as a 2-fold increase above the control (e.g., cells exposed to DMSO).
Cells were seeded on 384 well plates and allowed to attach overnight at 37° C. with 5% CO2 in the absence of growth factors. Math1 activation was measured by the increase in luminescence on a plate reader following addition of a luciferase detection reagent. Luminescence was assessed at 24, 48, and 72 hours. These conditions were used to screen 144,000 compounds contained in the small molecule libraries at Harvard University's Laboratory for Drug Discovery in Neurodegeneration (LDDN).
HTS were performed using HEK-Math1 cells seeded in 384 well plates. One compound was added per well using pin transfer. The final concentration of each compound was […]. Cell were incubated in the presence of a compound for 48 hours at 37° C. with 5% CO2. Cell lysates then were collected and bioluminescence determined. Luminescence values were compared normalized against DMSO.
About 20000 compounds were screened per week in 50 plates of 384 well with the aid of robotic systems (Beckman Biomek FX). Compounds were screened at an average final concentration of 0.7 μM (in 0.04% DMSO) with each plate containing 16 wells of 1 μM retinoic acid, as a positive control, and 16 wells of 0.04% DMSO, as a vehicle control. Percent activation of luminescence in the test compounds was determined for cells treated with the compounds against cells treated with DMSO.
Ten compounds, randomly selected from the group of 110 compounds identified in Example 2, were further evaluated, as follows. HEK cells were plated on 96 well plates at a density of 100000 cells per well. One day after plating, 0.1, 1, and 5 μM of each positive compound was added per well in a 10% fetal bovine serum (FBS) DMEM solution. Cells were then lysed 48 hours after addition of the compound and Math1 expression was analyzed using a luciferase reporter assay, as described above, and real-time PCR.
The half maximal inhibitory concentration (IC50) and median lethal dose or Lethal Dose, 50% (LD50) were determined for each of the compounds identified in Example 2 using standard laboratory techniques. IC50 is a measure of the effectiveness of a compound in inhibiting biological or biochemical function. LD50 is the amount of a compound required to kill half the members of a tested population.

[2] = LD50 (median lethal dose) determination; format: cell-based
From the text: IC50 is a measure of the effectiveness of a compound in inhibiting biological or biochemical function. LD50 is the amount of a compound required to kill half the members of a tested population.

[3] = Homo sapiens, HEK293; read-out: IC50
[4] = Homo sapiens, HEK293; read-out: Maximum (Fold DMSO)

Structure (SMILES): c1ccc(OCc2nc(-c3ccccn3)no2)cc1 [CP-0068395, 5-(phenoxymethyl)-3-(pyridin-2-yl)-1,2,4-oxadiazole]
- IC50 [1, 3]: 3 µM
- maximal fold induction [1, 4]: 1.6
- LD50 [2]: >10 µM

Structure (SMILES): Cc1cc(C(=O)Nc2ccccc2)c(C)n1Cc1cccs1 [CP-0104766, 2,5-dimethyl-N-phenyl-1-(thiophen-2-ylmethyl)-1H-pyrrole-3-carboxamide]
- IC50 [1, 3]: 3 µM
- maximal fold induction [1, 4]: 3
- LD50 [2]: >10 µM

Structure (SMILES): COc1ccc(-c2csc(Nc3ncccc3C)n2)cc1 [CP-0071862, 4-(4-methoxyphenyl)-N-(3-methylpyridin-2-yl)thiazol-2-amine]
- IC50 [1, 3]: 0.7 µM
- maximal fold induction [1, 4]: 1.8
- LD50 [2]: >10 µM

Structure (SMILES): CC(C)Oc1ccc(C(=O)Nc2sccc2C#N)cc1 [CP-0110352, N-(3-cyanothiophen-2-yl)-4-isopropoxybenzamide]
- IC50 [1, 3]: 0.05 µM
- maximal fold induction [1, 4]: 1.8
- LD50 [2]: >10 µM

Structure (SMILES): Cc1ccccc1OCc1nc2ccccc2[nH]1 [CP-0109953, 2-(o-tolyloxymethyl)-1H-benzo[d]imidazole]
- IC50 [1, 3]: 0.1 µM
- maximal fold induction [1, 4]: 1.8
- LD50 [2]: >10 µM

Structure (SMILES): Cc1ccc(-c2noc(CN3CCCCC3)n2)cc1 [CP-0070164, 5-(piperidin-1-ylmethyl)-3-p-tolyl-1,2,4-oxadiazole]
- IC50 [1, 3]: 1.6 µM
- maximal fold induction [1, 4]: 1.7
- LD50 [2]: >10 µM

Structure (SMILES): O=C(Nc1ccc(Cl)cn1)c1cccs1 [CP-0072156, N-(5-chloropyridin-2-yl)thiophene-2-carboxamide]
- IC50 [1, 3]: 2 µM
- maximal fold induction [1, 4]: 2
- LD50 [2]: >10 µM

Structure (SMILES): COc1ccc(-c2cc(-c3ccccc3)[nH]n2)c(O)c1 [CP-0064231, 5-methoxy-2-(5-phenyl-1H-pyrazol-3-yl)phenol]
- IC50 [1, 3]: 1 µM
- maximal fold induction [1, 4]: 1.5
- LD50 [2]: >10 µM

Structure (SMILES): Nc1nn(-c2ncnc3c2[nH]c2ccccc23)cc1-c1ccc(Cl)cc1 [CP-0000477, 4-(4-chlorophenyl)-1-(5H-pyrimido[5,4-b]indol-4-yl)-1H-pyrazol-3-amine]
- IC50 [1, 3]: 2 µM
- maximal fold induction [1, 4]: 2
- LD50 [2]: >30 µM

Structure (SMILES): COc1ccc(C2C=C(c3ccc(Cl)cc3)Nc3nc4ccccc4n32)cc1 (stereo not drawn) [CP-0050095, 2-(4-chlorophenyl)-4-(4-methoxyphenyl)-1,4-dihydrobenzo[4.5]imi-dazo[1,2-a]pyrimidine]
- IC50 ([1]; Homo sapiens, HEK293): 1.5 µM
- maximal fold induction ([1]; Homo sapiens, HEK293, read-out: Maximum (Fold DMSO)): 2.6
- LD50 [2]: >10 µM

Structure (SMILES): CNc1ccccc1C(=O)NCCc1ccccc1 [CP-0007991, 2-(methylamino)-N-phenethylbenzamide]
- IC50 [1, 3]: 0.6 µM
- maximal fold induction [1, 4]: 2
- LD50 [2]: >10 µM

Structure (SMILES): c1ccc2cc(-c3cc4ccccc4[nH]3)ccc2c1 [CP-0010539, 2-(naphthalen-2-yl)-1H-indole]
- IC50 [1, 3]: 0.5 µM
- maximal fold induction [1, 4]: 2.1
- LD50 [2]: >10 µM

Structure (SMILES): O=C(CSc1nc2ccccc2o1)Nc1ccccc1Cl [CP-0029300, 2-(benzo[d]oxazol-2-ylthio)-N-(2-chlorophenyl)acetamide]
- IC50 [1, 3]: 1.6 µM
- maximal fold induction [1, 4]: 2
- LD50 [2]: >10 µM

Structure (SMILES): CC(C)(C)c1ccc(C(=O)NCC2CCCO2)cc1 (stereo not drawn) [CP-0061566, 4-tert-butyl-N-((tetrahydrofuran-2-yl)methyl)benzamide]
- IC50 [1, 3]: 0.2 µM
- maximal fold induction [1, 4]: 2
- LD50 [2]: >10 µM

Structure (SMILES): COc1ccc(-c2nc3ccc(Cl)cc3n2OCc2ccccc2Cl)cc1 [CP-0000550, 6-chloro-1-(2-chlorobenzyloxy)-2-(4-methoxyphenyl)-1H-benzo[d]imidazole]
- IC50 [1, 3]: 0.03 µM
- maximal fold induction [1, 4]: 2
- LD50 [2]: >30 µM

Structure (SMILES): c1ccc(CCn2nnc3ccccc32)cc1 [CP-0070871, 1-phenethyl-1H-benzo[d][1,2,3]triazole]
- IC50 [1, 3]: 3 µM
- maximal fold induction [1, 4]: 2
- LD50 [2]: >10 µM

Structure (SMILES): COCCNc1ncc(-c2ccc(C)cc2)cn1 [CP-0059547, N-(2-methoxyethyl)-5-p-tolylpyrimidin-2-amine]
- IC50 [1, 3]: 1 µM
- maximal fold induction [1, 4]: 2
- LD50 [2]: >10 µM
